From patent US8455397B2, “Penoxsulam as a turfgrass, vineyard and orchard floor herbicide” (Dow AgroSciences, LLC, priority 2005, dated 2013)

Columns and labels:
[1] = tested on: pennywort (dollarweed) (HYDSS); assay: Granule carrier/particle size, postemergent field study; format: in vivo, Hydrocotyle spp
Protocol: (§1) Greenhouse and field studies evaluated the effect of two granule carriers and two particles sizes on the postemergent broadleaf activity of penoxsulam. The two carriers were a 46-0-0 and 28-4-12 fertilizer blend and the particle sizes averaged 0.75 mm and 2.15 mm.
Field studies were conducted in established turfgrass sites containing a natural population of target broadleaf weeds. Replicated trials, containing a minimum of three replications and having individual plots ranging in size from 25 to 50 ft. sq (2.3 to 4.6 square meters), were initiated in the late spring when turf and weeds were actively growing. Granule treatments were uniformly applied to individual plots using a common hand-shaker method. Applications were made in the early morning when dew was present. Natural rainfall and supplemental irrigation were used to maintain healthy turf and active weed growth throughout the study period. Control of each weed species in the study site was made at 2, 4 and 8 weeks after treatment. Control was determined visually by comparing treated and untreated weeds and scored on a 0 to 100 percent scale where 0 corresponds to no control and 100 corresponds to complete kill.

[2] = tested on: broadleaf plantain (PLAMA); assay: Granule carrier comparison, pre-emergence greenhouse study; format: in vivo, Plantago major L.; details: pre-emergent greenhouse
Protocol: as §1
(§2) Greenhouse studies were applied both post and pre-emergence to broadleaf weeds and sedge reared from seed or nutlet in 12.7″ (32.25 cm) by 8.8″ (22.35 cm) flats of a loam soil. Particle size and carrier were evaluated post emergence, carrier comparisons with the smaller particle size of 0.75 was evaluated pre-emergence. Stage of growth of species at post emergence application: PLAMA and TAROF in the 3 to 5 leaf stage, TRFRE in the 3rd tri-foliate stage and CYPES in the 3 to 4 leaf stage. Post emergence trial design was a replicated block, one species per flat, 3 replicate flats per treatment. Granule treatments were uniformly applied to individual flats on an area basis using a common hand-shaker method. Post emergence applications were made to the flat covering both soil and misted foliage. Trial was sub-irrigated daily, and watered over the top 1 time per week starting 7 days after application to simulate a natural rainfall event. Active weed growth was maintained throughout the study period. Weed control of each species in the post emergence study was assessed at 2, 3 and 4 weeks after treatment. Pre-emergence trial design was 2 species per flat, 4 replicate flats, block design. Pre-emergence applications were made to the soil surface using a common hand shaker method on an area basis. Overhead irrigation was maintained throughout the trial. Weed control of each species in the pre-emergence study was assessed at 2, 3, 4 and 5 weeks after application. Control was determined visually by comparing treated and untreated flats and scored on a 0 to 100 percent scale where 0 corresponds to no control and 100 corresponds to complete kill.

[3] = tested on: broadleaf plantain (PLAMA); assay: Granule carrier/particle size, post emergence greenhouse study; format: in vivo, Plantago major L.; details: postemergent greenhouse
Protocol: as §1, §2

wild mustard (SINAR) = assay: Pre-emergence orchard floor weeds, greenhouse study; format: in vivo, Sinapsis arvense; details: 28 Days After Application
Protocol: (§3) Greenhouse studies were conducted by seeding species in a loam soil and applying the herbicides to the soil surface using a Cornwall 5 milliliter glass syringe fitted with a TeeJet TN-3 nozzle on an area basis Immediately following herbicide application the pots were irrigated over the top to move the herbicides into the seeding zone. Pots were kept well irrigated throughout the trial. A percent visual weed control assessment was taken 4 weeks after application. Control was determined visually by comparing treated and untreated pots and scored on a 0 to 100 percent scale where 0 corresponds to no control and 100 corresponds to complete kill, or no emergence.

little mallow (MALPA) = assay: as above; format: in vivo, Malva parviflora; details: 28 Days After Application
Protocol: as §3

barnyardgrass (ECHCG) = assay: Pre-emergence weed nursery field study; format: in vivo, Echinochloa crus-galli; details: weed nursery in the field, 27 Days After Application
Protocol: (§4) Field studies were conducted in a non-fumigated weed nursery trial. Weed species were planted in single strips with a row planter at 36 centimeter spacing. Plot size was 3.05×9.2 meters, 4 replicate plots per treatment. Weed species were seeded at appropriate depths and later the same day pre-emergent applications were made to the soil surface. Liquid applications were made using a backpack sprayer calibrated to deliver 187 liters per hectare (L/ha). Applications were made in Fresno, Calif. in June. Sprinkler irrigation was applied at regular intervals throughout study period. Control of each weed species in the study site was made 4 weeks after treatment. Control was determined visually by comparing treated and untreated weeds and scored on a 0 to 100 percent scale where 0 corresponds to no control and 100 corresponds to complete kill or no emergence.

giant foxtail (SETFA) = assay: Pre-emergence weed nursery field study; format: in vivo, Setaria faberi; details: weed nursery in the field, 27 Days After Application
Protocol: as §4

yellow nutsedge (CYPES) = assay: Granule carrier/particle size, post emergence greenhouse study; format: in vivo, Cypres esculentus L.; details: postemergent greenhouse
Protocol: as §1, §2

dandelion (TAROF) = assay: Granule carrier comparison, pre-emergence greenhouse study; format: in vivo, Taraxacum officinale; details: pre-emergent greenhouse
Protocol: as §1, §2

[4] = carrier 28-4-12, particle size 0.75 mm, 11.2 gai/Ha
[5] = carrier 28-4-12, particle size 0.75 mm, 22.4 gai/Ha
[6] = carrier 28-4-12, particle size 2.15 mm, 11.2 gai/Ha
[7] = carrier 28-4-12, particle size 2.15 mm, 22.4 gai/Ha
[8] = carrier 46-0-0, particle size 0.75 mm, 11.2 gai/Ha
[9] = carrier 46-0-0, particle size 0.75 mm, 22.4 gai/Ha
[10] = carrier 46-0-0, particle size 2.15 mm, 11.2 gai/Ha
[11] = carrier 46-0-0, particle size 2.15 mm, 22.4 gai/Ha
[12] = carrier 28-4-12, particle size 0.75 mm, 5.6 gai/Ha
[13] = carrier 46-0-0, particle size 0.75 mm, 5.6 gai/Ha
[14] = carrier 28-4-12, particle size 2.15 mm, 5.6 gai/Ha
[15] = carrier 46-0-0, particle size 2.15 mm, 5.6 gai/Ha

## COc1cnc(OC)n2nc(NS(=O)(=O)c3c(OCC(F)F)cccc3C(F)(F)F)nc12 [Penoxsulam, 2-(2,2-difluoroethoxy)-N-(5,8-dimethoxy[1,2,4]triazolo[1,5-c]-pyrimidin-2-yl)-6-(trifluoromethyl)benzenesulfonamide]
[1]; [4]
  Percent Weed Control 26-27 DAA: 56%
[1]; [5]
  Percent Weed Control 26-27 DAA: 70%
[1]; [6]
  Percent Weed Control 26-27 DAA: 49%
[1]; [7]
  Percent Weed Control 26-27 DAA: 42%
[1]; [8]
  Percent Weed Control 26-27 DAA: 44%
[1]; [9]
  Percent Weed Control 26-27 DAA: 87%
[1]; [10]
  Percent Weed Control 26-27 DAA: 38%
[1]; [11]
  Percent Weed Control 26-27 DAA: 75%
[2]; [12]
  Percent Weed Control 35 DAA: 72%
[2]; [4]
  Percent Weed Control 35 DAA: 82%
[2]; [5]
  Percent Weed Control 35 DAA: 100%
[2]; [13]
  Percent Weed Control 35 DAA: 76%
[2]; [8]
  Percent Weed Control 35 DAA: 87%
[2]; [9]
  Percent Weed Control 35 DAA: 94%
[3]; [12]
  Percent Weed Control 27-30 DAA: 35%
[3]; [4]
  Percent Weed Control 27-30 DAA: 75%
[3]; [5]
  Percent Weed Control 27-30 DAA: 96%
[3]; [14]
  Percent Weed Control 27-30 DAA: 0%
[3]; [6]
  Percent Weed Control 27-30 DAA: 27%
[3]; [7]
  Percent Weed Control 27-30 DAA: 38%
[3]; [13]
  Percent Weed Control 27-30 DAA: 47%
[3]; [8]
  Percent Weed Control 27-30 DAA: 77%
[3]; [9]
  Percent Weed Control 27-30 DAA: 97%
[3]; [15]
  Percent Weed Control 27-30 DAA: 8%
[3]; [10]
  Percent Weed Control 27-30 DAA: 15%
[3]; [11]
  Percent Weed Control 27-30 DAA: 50%
Wild mustard (SINAR); 8.8 gai/Ha
  Pre-emergent Percent Mean Control: 79%
Wild mustard (SINAR); 17.5 gai/Ha
  Pre-emergent Percent Mean Control: 91%
Wild mustard (SINAR); 35 gai/Ha
  Pre-emergent Percent Mean Control: 98%
Wild mustard (SINAR); 70 gai/Ha
  Pre-emergent Percent Mean Control: 98%
Little mallow (MALPA); 8.8 gai/Ha
  Pre-emergent Percent Mean Control: 74%
Little mallow (MALPA); 17.5 gai/Ha
  Pre-emergent Percent Mean Control: 87%
Little mallow (MALPA); 35 gai/Ha
  Pre-emergent Percent Mean Control: 93%
Little mallow (MALPA); 70 gai/Ha
  Pre-emergent Percent Mean Control: 100%
Barnyardgrass (ECHCG); 8.8 gai/Ha
  Pre-emergent Percent Mean Control: 87%
Barnyardgrass (ECHCG); 17.5 gai/Ha
  Pre-emergent Percent Mean Control: 96%
Barnyardgrass (ECHCG); 35 gai/Ha
  Pre-emergent Percent Mean Control: 98%
Barnyardgrass (ECHCG); 70 gai/Ha
  Pre-emergent Percent Mean Control: 100%
Giant foxtail (SETFA); 8.8 gai/Ha
  Pre-emergent Percent Mean Control: 70%
Giant foxtail (SETFA); 17.5 gai/Ha
  Pre-emergent Percent Mean Control: 78%
Giant foxtail (SETFA); 35 gai/Ha
  Pre-emergent Percent Mean Control: 88%
Giant foxtail (SETFA); 70 gai/Ha
  Pre-emergent Percent Mean Control: 96%
Yellow nutsedge (CYPES); [12]
  Percent Weed Control 27-30 DAA: 18%
Yellow nutsedge (CYPES); [4]
  Percent Weed Control 27-30 DAA: 37%
Yellow nutsedge (CYPES); [5]
  Percent Weed Control 27-30 DAA: 60%
Yellow nutsedge (CYPES); [14]
  Percent Weed Control 27-30 DAA: 37%
Yellow nutsedge (CYPES); [6]
  Percent Weed Control 27-30 DAA: 25%
Yellow nutsedge (CYPES); [7]
  Percent Weed Control 27-30 DAA: 35%
Yellow nutsedge (CYPES); [13]
  Percent Weed Control 27-30 DAA: 18%
Yellow nutsedge (CYPES); [8]
  Percent Weed Control 27-30 DAA: 30%
Yellow nutsedge (CYPES); [9]
  Percent Weed Control 27-30 DAA: 65%
Yellow nutsedge (CYPES); [15]
  Percent Weed Control 27-30 DAA: 3%
Yellow nutsedge (CYPES); [10]
  Percent Weed Control 27-30 DAA: 20%
Yellow nutsedge (CYPES); [11]
  Percent Weed Control 27-30 DAA: 42%
Dandelion (TAROF); [12]
  Percent Weed Control 35 DAA: 71%
Dandelion (TAROF); [4]
  Percent Weed Control 35 DAA: 96%
Dandelion (TAROF); [5]
  Percent Weed Control 35 DAA: 98%
Dandelion (TAROF); [13]
  Percent Weed Control 35 DAA: 77%
Dandelion (TAROF); [8]
  Percent Weed Control 35 DAA: 96%
Dandelion (TAROF); [9]
  Percent Weed Control 35 DAA: 96%
